In this assay the test system is Primary human T cells expressing FMC63-CAR with ERa LBD fusion. In words: Brefeldin A block of ligand-induced surface trafficking. It is filed as cell-based. The settings on record: 1 uM pre-treatment; then 500 ng/mL 4-OHT two hours. As for the experimental part: Primary human T cells expressing FMC63-CAR with ERa LBD fusion were left untreated or were treated with 500 ng/mL 4-OHT ligand for two hours to induce surface expression of the CAR. Prior to 4-OHT treatment, half the cells were pre-treated with 1 uM Brefeldin A (FIG. 12, bottom two panels) to inhibit protein export from the Golgi.

The record followed here is patent US11993660B2, “Chimeric polypeptides and methods of altering the membrane localization of the same” (Cell Design Labs, Inc., priority 2017, dated 2024).

The structures appear in SMILES notation.

In the case of `C[C@H]1CCC/C=C/[C@@H]2C[C@H](O)C[C@H]2[C@H](O)/C=C/C(=O)O1` [Brefeldin A], the “effect on 4-OHT-induced surface protein expression” value is recorded as “prevented 4-OHT-induced increase in surface protein expression”.
